Experimental data published in patent US7696129B2, “Substituted aromatic amide derivative, intermediate thereof, agrohorticultural insecticide containing thereof and method for the use thereof” (Nihon Nohyaku Co., Ltd., priority 2001, dated 2010).

Tests used:
Assay type in all cases: in vivo
[1] = test system: Diamond Back Moth (Plutella xylostella); test: Test Example 1: insecticidal effect on diamond back moth, immersion of Chinese cabbage seedling with eggs; details: 50 ppm, seedling with eggs immersed about 30 seconds, 25° C., six days after the immersion
Text: Insecticidal Effect on Diamond Back Moth (Plutella xylostella)
Adult diamond back moths were released and allowed to oviposit on a Chinese cabbage seedling. Two days after the release, the seedling having the eggs deposited thereon was immersed for about 30 seconds in a liquid chemical prepared by diluting a preparation containing each compound listed in Tables 4 to 9 as an active ingredient to adjust the concentration to 50 ppm. After air-dryness, it was allowed to stand in a room thermostatted at 25° C. Six days after the immersion, the hatched insects were counted. The mortality was calculated according to the following equation and the insecticidal effect was judged according to the criterion shown below. The test was carried out with triplicate groups of 10 insects.

[2] = test system: Smaller Tea Tortrix (Adxophyes sp.); test: Test Example 3: insecticidal effect on smaller tea tortrix, tea leaf immersion; details: 50 ppm, tea leaves immersed about 30 seconds, larvae, 25° C., humidity 70%, eight days after the inoculation
Protocol: Insecticidal Effect on Smaller Tea Tortrix (Adxophyes sp.)
Tea leaves were immersed for about 30 seconds in a liquid chemical prepared by diluting a preparation containing each compound listed in Tables 1 to 3 as an active ingredient to adjust the concentration to 50 ppm. After air-dryness, the tea leaves were placed in a plastic Petri dish with a diameter of 9 cm and inoculated with larvae of smaller tea tortrix, after which the dish was allowed to stand in a room thermostatted at 25° C. and having a humidity of 70%. Eight days after the inoculation, the dead and alive were counted and the insecticidal effect was judged according to the criterion shown in Test Example 1. The test was carried out with triplicate groups of 10 insects.

[3] = test system: Common Cutworm (Spodoptera litura); test: Test Example 2: insecticidal effect on common cutworm, cabbage leaf immersion; details: 50 ppm, cabbage leaf immersed about 30 seconds, second-instar larvae, 25° C., eight days after the inoculation
Text: Insecticidal Effect on Common Cutworm (Spodoptera litura)
A piece of cabbage leaf (cultivar; Shikidori) was immersed for about 30 seconds in a liquid chemical prepared by diluting a preparation containing each compound listed in Tables 4 to 9 as an active ingredient to adjust the concentration to 50 ppm. After air-dryness, it was placed in a plastic Petri dish with a diameter of 9 cm and inoculated with second-instar larvae of common cutworm, after which the dish was closed and then allowed to stand in a room thermostatted at 25° C. Eight days after the inoculation, the dead and alive were counted. The mortality was calculated according to the following equation and the insecticidal effect was judged according to the criterion shown in Test Example 1. The test was carried out with triplicate groups of 10 insects.

| Structure (SMILES) | Test Example 1 (insecticidal effect, mortality criterion) [1] | Test Example 3 (insecticidal effect, mortality criterion) [2] | Test Example 2 (insecticidal effect, mortality criterion) [3] |
| --- | --- | --- | --- |
| CSCC(C)(C)NC(=O)c1ccccc1C(=O)Nc1ccc(C(C(F)(F)F)C(F)(F)F)cc1C [5-13] | A (Mortality 100%) | E (Mortality 49% or less) | E (Mortality 49% or less) |
| Cc1cc(C(C(F)(F)F)C(F)(F)F)ccc1NC(=O)c1cccc([N+](=O)[O-])c1C(=O)NC(C)C [5-14] | A (Mortality 100%) | A (Mortality 100%) | A (Mortality 100%) |
| CSCC(C)(C)NC(=O)c1c(C(=O)Nc2ccc(C(C(F)(F)F)C(F)(F)F)cc2C)cccc1[N+](=O)[O-] [5-15] | A (Mortality 100%) | A (Mortality 100%) | A (Mortality 100%) |
| CSCC(C)(C)NC(=O)c1c(F)cccc1C(=O)Nc1ccc(C(C(F)(F)F)C(F)(F)F)cc1C [5-16] | A (Mortality 100%) | A (Mortality 100%) | A (Mortality 100%) |
| Cc1cc(C(C(F)(F)F)C(F)(F)F)ccc1NC(=O)c1cccc(Cl)c1C(=O)NC(C)C [5-17] | A (Mortality 100%) | A (Mortality 100%) | A (Mortality 100%) |
| CON=CC(C)(C)NC(=O)c1c(Cl)cccc1C(=O)Nc1ccc(C(C(F)(F)F)C(F)(F)F)cc1C [5-18] | A (Mortality 100%) | A (Mortality 100%) | A (Mortality 100%) |
| CSCC(C)(C)NC(=O)c1c(Cl)cccc1C(=O)Nc1ccc(C(C(F)(F)F)C(F)(F)F)cc1C [5-19] | A (Mortality 100%) | A (Mortality 100%) | A (Mortality 100%) |
| CON=CC(C)(C)NC(=O)c1c(Br)cccc1C(=O)Nc1ccc(C(C(F)(F)F)C(F)(F)F)cc1C [5-20] | A (Mortality 100%) | A (Mortality 100%) | A (Mortality 100%) |
| Cc1cc(C(C(F)(F)F)C(F)(F)F)ccc1NC(=O)c1cccc(I)c1C(=O)NC(C)C [5-21] | A (Mortality 100%) | A (Mortality 100%) | A (Mortality 100%) |
| Cc1cc(C(C(F)(F)F)C(F)(F)F)ccc1NC(=O)c1cccc(I)c1C(=O)NC(C)(C)C [5-22] | A (Mortality 100%) | A (Mortality 100%) | C (Mortality 89-80%) |
| C#CC(C)(C)NC(=O)c1c(I)cccc1C(=O)Nc1ccc(C(C(F)(F)F)C(F)(F)F)cc1C [5-24] | A (Mortality 100%) | A (Mortality 100%) | C (Mortality 89-80%) |
| CCOC(=O)C=CC(C)(C)NC(=O)c1c(I)cccc1C(=O)Nc1ccc(C(C(F)(F)F)C(F)(F)F)cc1C [5-25] | A (Mortality 100%) | A (Mortality 100%) | A (Mortality 100%) |
| CON=CC(C)(C)NC(=O)c1c(I)cccc1C(=O)Nc1ccc(C(C(F)(F)F)C(F)(F)F)cc1C [5-26] | A (Mortality 100%) | A (Mortality 100%) | C (Mortality 89-80%) |
| Cc1cc(C(C(F)(F)F)C(F)(F)F)ccc1NC(=O)c1cccc(I)c1C(=O)NC(C)(C)CO [5-27] | A (Mortality 100%) | E (Mortality 49% or less) | E (Mortality 49% or less) |
| Cc1cc(C(C(F)(F)F)C(F)(F)F)ccc1NC(=O)c1cccc(I)c1C(=O)NC(C)COC(=O)N(C)Cc1ccccc1 (stereo not drawn) [5-31] | A (Mortality 100%) | A (Mortality 100%) | A (Mortality 100%) |
| CCNC(=O)OCC(C)NC(=O)c1c(I)cccc1C(=O)Nc1ccc(C(C(F)(F)F)C(F)(F)F)cc1C (stereo not drawn) [5-32] | A (Mortality 100%) | A (Mortality 100%) | A (Mortality 100%) |
| Cc1cc(C(C(F)(F)F)C(F)(F)F)ccc1NC(=O)c1cccc(I)c1C(=O)NC(C)COC(=O)NCc1ccccc1 (stereo not drawn) [5-33] | A (Mortality 100%) | A (Mortality 100%) | A (Mortality 100%) |
| Cc1ccccc1CNC(=O)OCC(C)NC(=O)c1c(I)cccc1C(=O)Nc1ccc(C(C(F)(F)F)C(F)(F)F)cc1C (stereo not drawn) [5-34] | A (Mortality 100%) | A (Mortality 100%) | A (Mortality 100%) |
| Cc1cc(C(C(F)(F)F)C(F)(F)F)ccc1NC(=O)c1cccc(I)c1C(=O)NC(C)COC(=O)NCc1ccc(C(F)(F)F)cc1 (stereo not drawn) [5-35] | A (Mortality 100%) | A (Mortality 100%) | A (Mortality 100%) |
| Cc1ccc(CNC(=O)OCC(C)NC(=O)c2c(I)cccc2C(=O)Nc2ccc(C(C(F)(F)F)C(F)(F)F)cc2C)cc1 (stereo not drawn) [5-36] | A (Mortality 100%) | A (Mortality 100%) | E (Mortality 49% or less) |
| Cc1cc(C(C(F)(F)F)C(F)(F)F)ccc1NC(=O)c1cccc(I)c1C(=O)NC(C)COC(=O)NCc1ccc(Cl)cc1 (stereo not drawn) [5-37] | A (Mortality 100%) | A (Mortality 100%) | A (Mortality 100%) |
| COc1ccc(CNC(=O)OCC(C)NC(=O)c2c(I)cccc2C(=O)Nc2ccc(C(C(F)(F)F)C(F)(F)F)cc2C)cc1 (stereo not drawn) [5-38] | A (Mortality 100%) | A (Mortality 100%) | A (Mortality 100%) |
| CSCC(C)NC(=O)c1c(I)cccc1C(=O)Nc1ccc(C(C(F)(F)F)C(F)(F)F)cc1C (stereo not drawn) [5-39] | A (Mortality 100%) | A (Mortality 100%) | A (Mortality 100%) |
| CC(=O)NCC(C)(C)NC(=O)c1c(I)cccc1C(=O)Nc1ccc(C(C(F)(F)F)C(F)(F)F)cc1C [5-40] | A (Mortality 100%) | A (Mortality 100%) | A (Mortality 100%) |
| CSCC(C)(C)NC(=O)c1c(C(=O)Nc2ccc(C(C(F)(F)F)C(F)(F)F)cc2C)cccc1C(F)(F)F [5-41] | A (Mortality 100%) | A (Mortality 100%) | A (Mortality 100%) |
